Laboratory results published in patent US11420970B1 (NOVARTIS AG, priority 2019, dated 2022).
Where two headings read alike, the source gives them in different places.

Experiments:
NSD2 [1-1365] = NSD2 [1-1365] (Homo sapiens (Human), UniProt O96028); assay: LC-MS/MS-based NSD2 enzymatic assay (SAH production); assay type: biochemical; conditions: read-out: NSD2 IC50
Summary of the method: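 SAH formed was measured by LC-MS/MS using d4-SAH as internal standard and an SAH calibration curve. Compounds were preincubated 20 min with NSD2 [1-1365] and SAM; mouse-liver nucleosome then started a 90 min room-temperature reaction (8 nM enzyme, 1 μM SAM, 400 nM nucleosome final, pH 8.0), stopped with TFA.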

[1] = tested on: cellular H3K36me2 level in thyroid carcinoma cell line CGTH-W-1 (NSD2 E1099K); assay: H3K36me2 cellular ELISA assay in CGTH-W-1 line; assay type: cell-based; conditions: Homo sapiens, CGTH-W-1, 72 h, read-out: H3K36me2 ELISA in CGTH-W-1
Summary of the method: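 After 72 h compound treatment of NSD2 E1099K-mutant CGTH-W-1 cells, H3K36me2 and total H3 were quantified by ELISA with chemiluminescent read-out. A parallel-seeded plate gave cell viability by CellTiter-Glo.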

[2] = tested on: cellular H3K36me2 level in multiple myeloma cell line KMS11 (t(4;14)+); assay: H3K36me2 cellular ELISA assay in KMS11-Par line; assay type: cell-based; conditions: Homo sapiens, KMS-11, ELISA, read-out: H3K36me2 ELISA in KMS11-Par
Summary of the method: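 After 72 h compound exposure, HCl-extracted histones from KMS11 (t(4;14)+) cells were probed by ELISA for H3K36me2 against total H3 with a chemiluminescence read-out. Cells were plated at 1,250/well in Opti-MEM plus B-27 and N2 the day before. A parallel CellTiter-Glo plate tracked viability.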

[3] = NSD2 biochemical activity, class symbols
[4] = KMS11-Par line (t(4;14)+), 72 hours treatment

NSD2 [1-1365], sequence (O96028 whole entry): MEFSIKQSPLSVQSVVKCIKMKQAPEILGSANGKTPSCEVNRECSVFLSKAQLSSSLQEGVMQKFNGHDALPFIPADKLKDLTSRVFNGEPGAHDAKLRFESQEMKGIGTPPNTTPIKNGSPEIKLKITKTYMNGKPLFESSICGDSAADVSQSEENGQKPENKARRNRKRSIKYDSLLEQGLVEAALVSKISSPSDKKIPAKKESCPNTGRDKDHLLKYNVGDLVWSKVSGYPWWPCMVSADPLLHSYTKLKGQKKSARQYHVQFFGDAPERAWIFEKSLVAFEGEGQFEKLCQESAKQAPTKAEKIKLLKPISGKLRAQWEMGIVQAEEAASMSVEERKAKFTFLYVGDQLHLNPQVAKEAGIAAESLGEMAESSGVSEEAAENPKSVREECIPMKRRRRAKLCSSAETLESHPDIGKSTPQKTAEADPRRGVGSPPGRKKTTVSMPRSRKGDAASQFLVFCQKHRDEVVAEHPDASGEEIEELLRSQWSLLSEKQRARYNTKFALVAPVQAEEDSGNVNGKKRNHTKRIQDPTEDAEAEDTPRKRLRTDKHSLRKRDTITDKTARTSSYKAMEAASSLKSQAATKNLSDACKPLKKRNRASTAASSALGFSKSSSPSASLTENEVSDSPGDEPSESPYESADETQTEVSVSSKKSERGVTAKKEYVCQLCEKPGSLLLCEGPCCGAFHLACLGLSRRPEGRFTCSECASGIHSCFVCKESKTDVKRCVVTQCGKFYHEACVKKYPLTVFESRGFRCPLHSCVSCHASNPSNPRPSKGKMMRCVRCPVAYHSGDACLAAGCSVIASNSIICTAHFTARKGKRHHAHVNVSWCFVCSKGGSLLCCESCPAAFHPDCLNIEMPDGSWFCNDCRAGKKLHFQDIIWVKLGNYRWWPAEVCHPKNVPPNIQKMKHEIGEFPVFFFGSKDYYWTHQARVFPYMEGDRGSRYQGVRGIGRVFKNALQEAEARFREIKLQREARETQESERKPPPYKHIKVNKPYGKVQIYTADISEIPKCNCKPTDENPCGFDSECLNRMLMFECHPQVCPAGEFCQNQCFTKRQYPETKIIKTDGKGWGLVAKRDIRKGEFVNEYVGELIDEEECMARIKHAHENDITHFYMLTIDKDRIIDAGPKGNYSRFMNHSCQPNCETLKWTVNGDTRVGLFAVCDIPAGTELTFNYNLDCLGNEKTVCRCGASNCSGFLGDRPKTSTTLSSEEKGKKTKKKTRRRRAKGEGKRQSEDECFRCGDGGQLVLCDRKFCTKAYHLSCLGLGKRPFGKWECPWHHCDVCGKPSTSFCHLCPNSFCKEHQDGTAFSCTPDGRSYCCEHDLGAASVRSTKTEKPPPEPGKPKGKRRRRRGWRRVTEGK

SMILES | IC50 (NSD2 [1-1365]) | IC50 [1] | IC50 ([2]; KMS11-Par line, 72 hours) | IC50 (NSD2 [1-1365]; [3]) | IC50 [2, 4]
COc1cc(F)c(-c2cc(Cn3cnc4c(N)ncnc43)c(N3CCC[C@](N)(c4cccc(Cl)n4)C3)cn2)cc1F [Example 187, (R)-9-((5-(3-amino-3-(6-chloropyridin-2-yl)piperidin-1-yl)-2-(2,5-difluoro-4-methoxyphenyl)pyridin-4-yl)methyl)-9H-purin-6-amine] | 10 to 1000 nM | 383 nM | 815 nM |  | 
Nc1ncnc2c1ncn2Cc1cc(-c2ccc(F)c(F)c2)ncc1N1CCC[C@](N)([C@H](O)C(F)F)C1 [Example 114, (S)-1-((R)-3-amino-1-(4-((6-amino-9H-purin-9-yl)methyl)-6-(3,4-difluorophenyl)pyridin-3-yl)piperidin-3-yl)-2,2-difluoroethan-1-ol] |  | 443 nM |  | 10 to 1000 nM | 1940 nM
CC(C)(C)C(=O)[C@@]1(N)CCCN(c2cnc(-c3ccc(F)c(F)c3)cc2Cn2cnc3c(N)ncnc32)C1 [Example 109, (R)-1-(3-amino-1-(4-((6-amino-9H-purin-9-yl)methyl)-6-(3,4-difluorophenyl)pyridin-3-yl)piperidin-3-yl)-2,2-dimethylpropan-1-one] |  | 2090 nM |  | 10 to 1000 nM | 2730 nM
Nc1ncnc2c1ncn2Cc1cc(-c2ccc(C(F)F)cc2F)ncc1N1CCC[C@](N)([C@@H](O)C(F)F)C1 [Example 132, (R)-1-((R)-3-amino-1-(4-((6-amino-9H-purin-9-yl)methyl)-6-(4-(difluoromethyl)-2-fluorophenyl)pyridin-3-yl)piperidin-3-yl)-2,2-difluoroethan-1-ol] |  | 264 nM |  | 1 to 10 nM | 1230 nM
Nc1ncnc2c1ncn2Cc1cc(C2CCCCC2)ncc1N1CCC[C@](N)([C@@H](O)C(F)F)C1 [Example 130, (R)-1-((R)-3-amino-1-(4-((6-amino-9H-purin-9-yl)methyl)-6-cyclohexylpyridin-3-yl)piperidin-3-yl)-2,2-difluoroethan-1-ol] |  | 321 nM |  | 1 to 10 nM | 3520 nM
Nc1ncnc2c1ncn2Cc1cc(-c2ccc(F)c(F)c2)ncc1N1CCC[C@](N)(c2cccc(Cl)n2)C1 [Example 200, (R)-9-((5-(3-amino-3-(6-chloropyridin-2-yl)piperidin-1-yl)-2-(3,4-difluorophenyl)pyridin-4-yl)methyl)-9H-purin-6-amine] | 1 to 10 nM | 180 nM | 330 nM |  | 
Nc1ncnc2c1ncn2Cc1cc(-c2ccc(F)cc2F)ncc1N1CCC[C@](N)([C@@H](O)C(F)F)C1 [Example 147, (R)-1-((R)-3-amino-1-(4-((6-amino-9H-purin-9-yl)methyl)-6-(2,4-difluorophenyl)pyridin-3-yl)piperidin-3-yl)-2,2-difluoroethan-1-ol] |  | 44 nM |  | 10 to 1000 nM | 2490 nM
Nc1ncnc2c1ncn2Cc1cc(-c2ccc(F)c(F)c2)ncc1N1CCC[C@](N)(c2cccc(C(F)F)n2)C1 [Example 227, (R)-9-((5-(3-amino-3-(6-(difluoromethyl)pyridin-2-yl)piperidin-1-yl)-2-(3,4-difluorophenyl)pyridin-4-yl)methyl)-9H-purin-6-amine] | 10 to 1000 nM | 133 nM | 302 nM |  | 
Nc1ncnc2c1ncn2Cc1cc(-c2cc(F)c(OC(F)F)cc2F)ncc1N1CCC[C@](N)([C@H](O)C(F)F)C1 [Example 128, (S)-1-((R)-3-amino-1-(4-((6-amino-9H-purin-9-yl)methyl)-6-(4-(difluoromethoxy)-2,5-difluorophenyl)pyridin-3-yl)piperidin-3-yl)-2,2-difluoroethan-1-ol] |  | 60 nM |  | 1 to 10 nM | 693 nM
Nc1ncnc2c1ncn2Cc1cc(-c2ccc(F)c(F)c2)ncc1N1CCC[C@](N)([C@@H](F)CO)C1 [Example 285, (R)-2-((R)-3-amino-1-(4-((6-amino-9H-purin-9-yl)methyl)-6-(3,4-difluorophenyl)pyridin-3-yl)piperidin-3-yl)-2-fluoroethan-1-ol] | 1 to 10 nM | 43.7 nM | 885 nM |  | 
Nc1ncnc2c1ncn2Cc1cc(-c2ccc(F)c(F)c2)ncc1N1CCC[C@](N)(c2cc(O)cc(F)n2)C1 [Example 206, (R)-2-(3-amino-1-(4-((6-amino-9H-purin-9-yl)methyl)-6-(3,4-difluorophenyl)pyridin-3-yl)piperidin-3-yl)-6-fluoropyridin-4-ol] | 1 to 10 nM | 117 nM | 1160 nM |  | 
COc1ccc(-c2cc(Cn3cnc4c(N)ncnc43)c(N3CCC[C@](N)(C(O)C(F)F)C3)cn2)c(C(F)(F)F)c1 (stereo in doubt) [Example 166, (S)-1-((R)-3-amino-1-(4-((6-amino-9H-purin-9-yl)methyl)-6-(4-methoxy-2-(trifluoromethyl)phenyl)pyridin-3-yl)piperidin-3-yl)-2,2-difluoroethan-1-ol] |  | 432 nM |  | 1 to 10 nM | 8510 nM
CC[C@H](C)C(=O)[C@@]1(N)CCCN(c2cnc(-c3ccc(F)c(F)c3)cc2Cn2cnc3c(N)ncnc32)C1 [Example 101, (S)-1-((R)-3-amino-1-(4-((6-amino-9H-purin-9-yl)methyl)-6-(3,4-difluorophenyl)pyridin-3-yl)piperidin-3-yl)-2-methylbutan-1-one] |  | 40 nM |  | 1 to 10 nM | 34 nM
Nc1ncnc2c1ncn2Cc1cc(-c2ccc(OC(F)F)c(F)c2)ncc1N1CCC[C@](N)([C@H](O)C(F)F)C1 [Example 116, (S)-1-((R)-3-amino-1-(4-((6-amino-9H-purin-9-yl)methyl)-6-(4-(difluoromethoxy)-3-fluorophenyl)pyridin-3-yl)piperidin-3-yl)-2,2-difluoroethan-1-ol] |  | 168 nM |  | 1 to 10 nM | 1350 nM
C[C@H](F)c1cccc([C@@]2(N)CCCN(c3cnc(-c4ccc(F)cc4)cc3Cn3cnc4c(N)ncnc43)C2)n1 [Example 183, 9-((5-((R)-3-amino-3-(6-((S)-1-fluoroethyl)pyridin-2-yl)piperidin-1-yl)-2-(4-fluorophenyl)pyridin-4-yl)methyl)-9H-purin-6-amine] | 10 to 1000 nM | 159 nM | 455 nM |  | 
Nc1ncnc2c1ncn2Cc1cc(-c2cc(F)c(F)cc2C(F)F)ncc1N1CCC[C@](N)([C@@H](O)C(F)F)C1 [Example 170, (R)-1-((R)-3-amino-1-(4-((6-amino-9H-purin-9-yl)methyl)-6-(2-(difluoromethyl)-4,5-difluorophenyl)pyridin-3-yl)piperidin-3-yl)-2,2-difluoroethan-1-ol] | 10 to 1000 nM | 161 nM | 1470 nM |  | 
Nc1ncnc2c1ncn2Cc1cc(-c2cc(F)c(F)cc2F)ncc1N1CCC[C@](N)(c2cccc(Cl)n2)C1 [Example 237] | 10 to 1000 nM | 825 nM | 2020 nM |  | 
COc1ccc(Cl)nc1[C@@]1(N)CCCN(c2cnc(-c3ccc(F)c(F)c3)cc2Cn2cnc3c(N)ncnc32)C1 [Example 230, (R)-9-((5-(3-amino-3-(6-chloro-3-methoxypyridin-2-yl)piperidin-1-yl)-2-(3,4-difluorophenyl)pyridin-4-yl)methyl)-9H-purin-6-amine] | 10 to 1000 nM | 1650 nM | 9980 nM |  | 
